Measured values: publication PMC2801615, “Sex Pheromone Receptor Specificity in the European Corn Borer Moth, Ostrinia nubilalis” (PLoS ONE, 2010)

Molecular target: T1, OnOr6/2 (Ostrinia nubilalis, UniProt D3J5H9)
T1 construct: gene OR6; full-length ORF (421-425 residues for the set) in pGEMHE; cRNA co-injected with OnOr2 in Xenopus oocytes; dimer with Or83b ortholog; with Odorant receptor coreceptor
T1 sequence (D3J5H9 1-421): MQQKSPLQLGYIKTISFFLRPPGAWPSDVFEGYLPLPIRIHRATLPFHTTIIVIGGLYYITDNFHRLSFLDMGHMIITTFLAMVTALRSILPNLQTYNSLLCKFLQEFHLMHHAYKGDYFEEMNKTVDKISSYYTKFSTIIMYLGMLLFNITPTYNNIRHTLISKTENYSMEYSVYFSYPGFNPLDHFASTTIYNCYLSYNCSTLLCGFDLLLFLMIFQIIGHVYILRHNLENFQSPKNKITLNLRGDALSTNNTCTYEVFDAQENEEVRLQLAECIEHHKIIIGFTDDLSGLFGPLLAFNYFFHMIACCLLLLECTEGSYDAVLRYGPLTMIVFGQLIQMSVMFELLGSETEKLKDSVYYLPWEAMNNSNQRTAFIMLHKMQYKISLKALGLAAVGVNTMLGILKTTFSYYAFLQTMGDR
T1 sequence (D3J5H5 1-473 partner): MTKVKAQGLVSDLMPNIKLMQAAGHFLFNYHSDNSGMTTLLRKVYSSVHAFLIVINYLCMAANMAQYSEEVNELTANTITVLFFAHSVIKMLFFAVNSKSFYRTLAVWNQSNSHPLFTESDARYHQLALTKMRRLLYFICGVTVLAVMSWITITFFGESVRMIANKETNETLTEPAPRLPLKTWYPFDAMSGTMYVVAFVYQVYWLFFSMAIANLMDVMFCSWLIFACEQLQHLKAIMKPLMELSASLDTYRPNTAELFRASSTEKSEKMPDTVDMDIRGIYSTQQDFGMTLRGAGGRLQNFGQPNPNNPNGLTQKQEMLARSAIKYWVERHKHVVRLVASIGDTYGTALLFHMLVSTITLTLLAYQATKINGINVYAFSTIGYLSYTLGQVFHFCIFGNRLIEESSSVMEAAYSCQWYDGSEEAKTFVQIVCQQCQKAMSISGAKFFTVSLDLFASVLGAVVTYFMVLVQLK
Experiment: two-electrode voltage clamp, Xenopus oocytes
Assay type: cell-based
Settings: read-out: EC50 (μM ± SEM)
Source text: two-electrode voltage clamp, Xenopus oocytes on OnOr6/2

`CC/C=C\CCCCCCCCCCOC(C)=O` [Z11, Z11–14:OAc] was tested, and the EC50 was 0.86 ± 0.27 µM.

Molecular target: T2, OnOr1/2 (Ostrinia nubilalis, UniProt D3J5H4)
T2 construct: gene OR1; full-length ORF (421-425 residues for the set) in pGEMHE; cRNA co-injected with OnOr2 in Xenopus oocytes; dimer with Or83b ortholog; with Odorant receptor coreceptor
T2 sequence (D3J5H4 1-424): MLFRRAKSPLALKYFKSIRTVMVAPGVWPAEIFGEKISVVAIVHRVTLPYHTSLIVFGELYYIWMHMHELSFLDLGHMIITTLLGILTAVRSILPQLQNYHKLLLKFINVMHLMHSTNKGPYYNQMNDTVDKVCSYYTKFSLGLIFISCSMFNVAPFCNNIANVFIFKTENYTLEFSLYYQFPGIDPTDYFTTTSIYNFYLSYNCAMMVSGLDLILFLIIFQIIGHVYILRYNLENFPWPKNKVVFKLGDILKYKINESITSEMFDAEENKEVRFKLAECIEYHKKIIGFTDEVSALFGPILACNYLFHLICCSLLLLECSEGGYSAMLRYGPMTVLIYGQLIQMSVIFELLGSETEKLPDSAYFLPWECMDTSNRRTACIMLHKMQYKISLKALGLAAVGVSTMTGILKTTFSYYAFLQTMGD
T2 sequence (D3J5H5 1-473 partner): T1 sequence (D3J5H5 1-473 partner)
Experiment: two-electrode voltage clamp, Xenopus oocytes
Assay type: cell-based
Settings: read-out: EC50 (μM ± SEM)
Source text: two-electrode voltage clamp, Xenopus oocytes on OnOr1/2

In order of falling EC50:
1. C/C=C\CCCCCCCCCCCOC(C)=O [Z12, Z12–14:OAc]  2.73 ± 0.24 µM
2. CC/C=C/CCCCCCCCCCOC(C)=O [E11, E11–14:OAc]  1.92 ± 0.2 µM
3. CCCC/C=C\CCCCCCCCOC(C)=O [Z9, Z9–14:OAc]  1.54 ± 0.33 µM
4. CC/C=C\CCCCCCCCCCOC(C)=O [Z11, Z11–14:OAc]  0.34 ± 0.05 µM
5. C/C=C/CCCCCCCCCCCOC(C)=O [E12, E12–14:OAc]  0.26 ± 0.05 µM
